Six molecules from patent US6342502B1, “Thieno[2,3-d]pyrimidine diones and their use in the treatment of reversible obstructive airways diseases” (AstraZeneca AB, priority 1997, dated 2002) can be followed below.

Molecules are shown by their SMILES.

`CC(C)Cn1c(=O)n(C)c(=O)c2c(SCCCO)c(C(O)c3cccc4ccccc34)sc21` (racemic) [Example 83, (±) 6-(1-Hydroxy-1-[1-naphthalenyl]methyl)-5-([3-hydroxypropyl]thio)-3-methyl-1-(2-methylpropyl)thieno[2,3-d]pyrimidine-2,4(1H,3H)-dione] gave a melting point of 100 to 105 °C. In the case of `CC(C)Cn1c(=O)n(C)c(=O)c2c(C(=O)NCC(=O)O)c(Cc3cccc4ccccc34)sc21` [Example 21, 2-{[1,2,3,4-Tetrahydro-3-methyl-1-(2-methylpropyl)-6-(1-naphthalenylmethyl)-2,4-dioxothieno[2,3-d]pyrimidin-5-yl]carboxamido}acetic acid], the melting point lay within 218 to 219 °C. Then `CC(C)Cn1c(=O)n(C)c(=O)c2c(SCCCC(=O)O)c(Cc3cccc4ccccc34)sc21` [Example 8, 4-[(1,2,3,4-Tetrahydro-3-methyl-1-(2-methylpropyl)-6-(1-naphthalenylmethyl)-2,4-dioxothieno[2,3-d]pyrimidin-5-yl)thio]butanoic acid], with 172 to 173 °C; and `CC(C)Cn1c(=O)n(C)c(=O)c2c(NC(=O)N(C)CCO)c(Cc3cccc4ccccc34)sc21` [Example 50], with 151 to 152 °C.

`CC(C)Cn1c(=O)n(C)c(=O)c2cc(Cc3cccc4ccccc34)sc21` [Example 4] returned a melting point of 137 to 138 °C. The value for `CC(C)Cn1c(=O)n(C)c(=O)c2cc(C(O)c3ccccc3)sc21` (stereo not drawn) [Example 14, 6-[(1-Hydroxy-1-phenyl)methyl]-3-methyl-1-(2-methylpropyl)thieno[2,3-d]pyrimidine-2,4(1H,3H)-dione] was 140 to 142 °C.
